Peptide text beside a SMILES is read from it.
Assays:
[1] = molecular target: T1, Solute carrier family 15 member 1 (Homo sapiens, UniProt P46059); assay: Affinity fo the compound against human Intestinal peptide transporter PepT1 in Caco-2 cells was measured as inhibition of [14C]Gly-Sar uptake; assay type: cell-based
T1 sequence (P46059 whole entry): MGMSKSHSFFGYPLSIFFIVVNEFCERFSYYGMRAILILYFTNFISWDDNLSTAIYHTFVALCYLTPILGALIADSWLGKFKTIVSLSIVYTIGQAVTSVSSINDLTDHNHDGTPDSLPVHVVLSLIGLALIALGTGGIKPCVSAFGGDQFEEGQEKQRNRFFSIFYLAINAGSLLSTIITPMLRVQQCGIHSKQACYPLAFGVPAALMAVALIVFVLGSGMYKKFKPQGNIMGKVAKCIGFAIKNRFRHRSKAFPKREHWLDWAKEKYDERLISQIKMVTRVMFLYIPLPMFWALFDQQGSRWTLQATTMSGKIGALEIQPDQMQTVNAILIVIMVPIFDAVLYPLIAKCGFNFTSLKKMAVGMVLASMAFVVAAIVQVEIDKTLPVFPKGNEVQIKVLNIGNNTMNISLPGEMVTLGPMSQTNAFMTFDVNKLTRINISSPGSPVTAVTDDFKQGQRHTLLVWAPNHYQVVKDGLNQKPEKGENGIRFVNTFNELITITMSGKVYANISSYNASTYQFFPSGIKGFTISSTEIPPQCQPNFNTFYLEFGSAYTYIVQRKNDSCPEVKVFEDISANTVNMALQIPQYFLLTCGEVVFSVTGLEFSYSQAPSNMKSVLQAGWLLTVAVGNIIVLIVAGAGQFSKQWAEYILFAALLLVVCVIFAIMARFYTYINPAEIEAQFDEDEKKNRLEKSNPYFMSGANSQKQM

[2] = Affinity against Renal peptide transporter PepT2 in SKPT cells was measured by the inhibition of [14C]Gly-Sar uptake; assay type: cell-based, Rattus norvegicus
[3] = Concentration required to inhibit the maximum [14C]Gly-Sar uptake by Renal peptide transporter PepT2 in SKPT cells; assay type: cell-based; conditions: Rattus norvegicus
[4] = molecular target: T1, Solute carrier family 15 member 1; assay: Concentration required to inhibit the maximum [14C]Gly-Sar uptake by human Intestinal peptide transporter PepT1 in Caco-2 cells; assay type: cell-based

SMILES	Ki [1] [mM]	Ki [2] [mM]	IC50 [3] [mM]	IC50 [4] [mM]
N[C@@H](Cc1ccccc1)[C@H](O)/C=C/C(=O)O	26.4	3.48	4.11	26.8
N[C@@H](Cc1ccccc1)[C@@H](O)CCC(=O)O		6.92	8.18	
N[C@@H](Cc1ccccc1)[C@H](O)CCC(=O)O		7.45	8.8	
N[C@@H](Cc1ccccc1)[C@@H](O)/C=C/C(=O)O	39.8	1.35	1.59	40.5
CC1=C(C(=O)O)N2C(=O)[C@@H](NC(=O)[C@H](N)c3ccccc3)[C@H]2SC1 [CEPHALEXIN ANHYDROUS]		0.0352	0.0416	

Now those with a lower Ki [2], led by results:

Ki [1] [mM]	Ki [2] [mM]	IC50 [3] [mM]	IC50 [4] [mM]	SMILES
0.4	0.0188	0.0222	0.4	N[C@@H](Cc1ccccc1)C(=O)CCC(=O)O
0.2	0.0146	0.0172	0.2	N[C@@H](Cc1ccccc1)C(=O)NCC(=O)O (H-Phe-Gly-OH)
